Data from publication PMC8963254, “Effects of Lysine N-ζ-Methylation in Ultrashort Tetrabasic Lipopeptides (UTBLPs) on the Potentiation of Rifampicin, Novobiocin, and Niclosamide in Gram-Negative Bacteria” (Antibiotics, 2022).
≈ marks a conversion by molar mass, not a printed value. Where two headings read alike, the source gives them in different places. Residues, ends and D or L forms follow the SMILES beside them. *: point of attachment. Octanoyl = CCCCCCCC(=O)*

Tests used:
[1] = system: K. pneumoniae 113250; assay: microbe, parasite or virus in culture; assay type: cell-based, Klebsiella pneumoniae; conditions: 113250, 18 h
In short: (§1)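 MIC was determined by broth microdilution following CLSI guidelines. Serially varied compound concentrations were incubated with bacterial inoculum at 5 × 10^5 CFU/mL (final) for 18 h at 37 °C. Growth was scored as turbidity by absorbance at 590 nm.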

[2] = system: S. aureus ATCC 29213; assay type: cell-based, Staphylococcus aureus; conditions: ATCC 29213, 18 h
Method: (§2) The in vitro antibacterial activity of the UTBLPs was assessed against wild-type and clinically isolated bacterial strains. To obtain the MIC of the compounds, the microbroth dilution susceptibility assay was performed according to the Clinical and Laboratory Standards Institute (CLSI, Wayne, PA, USA) guidelines and as previously described. Briefly, the compounds at varying concentrations were incubated with bacterial inoculum (5 × 10^5 CFU/mL final concentration) at 37 °C for 18 h. Growth in the form of turbidity was confirmed using an EMax Plus microplate reader (Molecular Devices, San Jose, CA, USA) at 590 nm.

[3] = system: MRSA ATCC 33592; assay type: cell-based, Staphylococcus aureus; conditions: ATCC 33592, 18 h
Method: as §2

[4] = system: E. faecium ATCC 27270; assay type: cell-based, Enterococcus faecium
Method: (§3) The synergy of the UTBLPs with various antibiotics was assessed using checkerboard assay as previously described. Briefly, the combination of antibiotic and OMP at varying concentrations were incubated with bacterial inoculum (5 × 10^5 CFU/mL final concentration) at 37 °C for 18 h. Growth in the form of turbidity was confirmed using an EMax Plus microplate reader (Molecular Devices, Union City, CA, USA) at 590 nm. Fractional inhibitory concentration index (FICI) was used to evaluate the interaction between the antibiotic and the OMP. FICI is the sum of the FIC of the antibiotic and the FIC of the OMP. The FIC value is calculated by dividing the MIC of the agents in combination by the MIC of the agent alone. FICI ≤ 0.5 is synergistic, 0.5 < x ≤ 4 is additive, and >4 is antagonistic.

[5] = system: E. faecalis ATCC 29212; assay type: cell-based, Enterococcus faecalis
Method: as §3

[6] = system: E. coli 94474; assay: microbe, parasite or virus in culture; assay type: cell-based, Escherichia coli; conditions: 94474, 18 h
In short: as §1

[7] = system: E. coli 94393; assay: microbe, parasite or virus in culture; assay type: cell-based, Escherichia coli; conditions: 94393, 18 h
In short: as §1

[8] = system: E. coli ATCC 25922; assay type: cell-based, Escherichia coli; conditions: for MICUTBLP: UTBLP alone
Method: as §3

[9] = system: E. coli 94474; assay type: cell-based, Escherichia coli; conditions: for MICUTBLP: UTBLP alone
Method: as §3

[10] = system: E. coli 94393; assay type: cell-based, Escherichia coli; conditions: for MICUTBLP: UTBLP alone
Method: as §3

[11] = system: A. baumannii ATCC 17978; assay type: cell-based, Acinetobacter baumannii; conditions: ATCC 17978, 18 h
Method: as §2

[12] = system: E. coli ATCC 25922; assay type: cell-based, Escherichia coli; conditions: ATCC 25922, 18 h
Method: as §2

[13] = system: A. baumannii AB027; assay type: cell-based, Acinetobacter baumannii; conditions: for MICUTBLP: UTBLP alone
In short: (§4)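 Values derive from a two-agent checkerboard with an 18 h, 37 °C incubation. FICI cut-offs: ≤0.5 synergy, 0.5–4 additive, >4 antagonism.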

[14] = system: A. baumannii 92247; assay type: cell-based, Acinetobacter baumannii; conditions: for MICUTBLP: UTBLP alone
In short: as §4

[15] = system: MSSE 81388; assay type: cell-based, Staphylococcus epidermidis; conditions: 18 h
Method: as §2

[16] = system: MRSE 61589; assay type: cell-based, Staphylococcus epidermidis; conditions: 61589, 18 h
Method: as §2

[17] = UTBLP alone, plate with chloramphenicol
[18] = UTBLP in combination with chloramphenicol
[19] = chloramphenicol in combination with the UTBLP
[20] = UTBLP in combination with novobiocin
[21] = UTBLP in combination with rifampicin
[22] = novobiocin in combination with the UTBLP
[23] = rifampicin in combination with the UTBLP

Structure (SMILES): CCCCCCCC(=O)NCCCC[C@H](NC(=O)CCCCCCC)C(=O)N[C@@H](CCCCN)C(=O)N[C@@H](CCCCN)C(=O)N[C@@H](CCCCN)C(=O)N[C@@H](CCCCN)C(N)=O [UTBLP 5] (Octanoyl-K(Octanoyl)KKKK-NH2)
- MIC [1]: > 128 µg/mL
- MIC [2]: 64 µg/mL (≈ 70.3 µM)
- MIC [3]: 64 µg/mL (≈ 70.3 µM)
- Interpretation ([4]; UTBLP + chloramphenicol): Additive (0.5 < x ≤ 4 is additive)
- MICUTBLP [4, 17]: 32 µg/mL
- MICUTBLP [MICcombo] [4, 18]: 8 µg/mL
- MICchloramphenicol [MICcombo] [4, 19]: 2 µg/mL
- Interpretation ([5]; UTBLP + chloramphenicol): Additive (0.5 < x ≤ 4 is additive)
- MICUTBLP [5, 17]: 32 µg/mL
- MICUTBLP [MICcombo] [5, 18]: 4 µg/mL
- MICchloramphenicol [MICcombo] [5, 19]: 4 µg/mL
- MIC [6]: 128 µg/mL (≈ 141 µM)
- MIC [7]: 32 µg/mL (≈ 35.2 µM)
- Interpretation ([8]; UTBLP + chloramphenicol): Synergy (FICI ≤ 0.5 is synergistic)
- Interpretation ([8]; UTBLP + niclosamide): Synergy (FICI ≤ 0.5 is synergistic)
- Interpretation ([8]; UTBLP + novobiocin): Synergy (FICI ≤ 0.5 is synergistic)
- Interpretation ([8]; UTBLP + rifampicin): Synergy (FICI ≤ 0.5 is synergistic)
- MICUTBLP ([8]; plate with chloramphenicol): 64 µg/mL
- MICUTBLP ([8]; plate with niclosamide): 64 µg/mL
- MICUTBLP ([8]; plate with novobiocin): 64 µg/mL
- MICUTBLP ([8]; plate with rifampicin): 64 µg/mL
- MICUTBLP [MICcombo] [8, 18]: 16 µg/mL
- MICUTBLP [MICcombo] ([8]; UTBLP in combination with niclosamide): 0.5 µg/mL
- MICUTBLP [MICcombo] [8, 20]: 1 µg/mL
- MICUTBLP [MICcombo] [8, 21]: 2 µg/mL
- MICantibiotic [MICcombo] [8, 19]: 0.25 µg/mL
- MICantibiotic [MICcombo] ([8]; niclosamide in combination with the UTBLP): 2 µg/mL
- MICantibiotic [MICcombo] [8, 22]: 0.5 µg/mL
- MICantibiotic [MICcombo] [8, 23]: 0.063 µg/mL
- Interpretation ([9]; UTBLP + novobiocin): Synergy (FICI ≤ 0.5 is synergistic)
- Interpretation ([9]; UTBLP + rifampicin): Synergy (FICI ≤ 0.5 is synergistic)
- MICUTBLP ([9]; plate with novobiocin): 128 µg/mL
- MICUTBLP ([9]; plate with rifampicin): 128 µg/mL
- MICUTBLP [MICcombo] [9, 20]: 4 µg/mL
- MICUTBLP [MICcombo] [9, 21]: 2 µg/mL
- MICantibiotic [MICcombo] [9, 22]: 1 µg/mL
- MICantibiotic [MICcombo] [9, 23]: 0.25 µg/mL
- Interpretation ([10]; UTBLP + novobiocin): Synergy (FICI ≤ 0.5 is synergistic)
- Interpretation ([10]; UTBLP + rifampicin): Synergy (FICI ≤ 0.5 is synergistic)
- MICUTBLP ([10]; plate with novobiocin): 32 µg/mL
- MICUTBLP ([10]; plate with rifampicin): 32 µg/mL
- MICUTBLP [MICcombo] [10, 20]: 1 µg/mL
- MICUTBLP [MICcombo] [10, 21]: 4 µg/mL
- MICantibiotic [MICcombo] [10, 22]: 2 µg/mL
- MICantibiotic [MICcombo] [10, 23]: 0.125 µg/mL
- MIC [11]: 64 µg/mL (≈ 70.3 µM)
- MIC [12]: 64 µg/mL (≈ 70.3 µM)
- Interpretation ([13]; UTBLP + novobiocin): Synergy (FICI ≤ 0.5 is synergistic)
- Interpretation ([13]; UTBLP + rifampicin): Synergy (FICI ≤ 0.5 is synergistic)
- MICUTBLP ([13]; plate with novobiocin): 128 µg/mL
- MICUTBLP ([13]; plate with rifampicin): 128 µg/mL
- MICUTBLP [MICcombo] [13, 20]: 1 µg/mL
- MICUTBLP [MICcombo] [13, 21]: 2 µg/mL
- MICantibiotic [MICcombo] [13, 22]: 0.25 µg/mL
- MICantibiotic [MICcombo] [13, 23]: 0.016 µg/mL
- Interpretation ([14]; UTBLP + novobiocin): Synergy (FICI ≤ 0.5 is synergistic)
- Interpretation ([14]; UTBLP + rifampicin): Synergy (FICI ≤ 0.5 is synergistic)
- MICUTBLP ([14]; plate with novobiocin): 32 µg/mL
- MICUTBLP ([14]; plate with rifampicin): 32 µg/mL
- MICUTBLP [MICcombo] [14, 20]: 1 µg/mL
- MICUTBLP [MICcombo] [14, 21]: 2 µg/mL
- MICantibiotic [MICcombo] [14, 22]: 0.125 µg/mL
- MICantibiotic [MICcombo] [14, 23]: 0.063 µg/mL
- MIC [15]: 16 µg/mL (≈ 17.6 µM)
- MIC [16]: 8 µg/mL (≈ 8.79 µM)
